Reference: the NIST ThermoML archive (doi:10.1016/j.jct.2003.11.001)
± gives the expanded uncertainty stated by the source.

Assay: mn = molality of the nth substance listed, in mol/kg
Settings: 101.3 kPa, Liquid; for viscosity: Capillary tube (Ostwald / Ubbelohde) method

CCCCCC(=O)[O-].[Na+] [sodium hexanoate] + O
Settings	mass density, m1 = 0.5 [kg/m3]	mass density, m1 = 1 [kg/m3]	mass density, m1 = 1.5 [kg/m3]	mass density, m1 = 2.177 [kg/m3]	viscosity, m1 = 0.5 [mPa·s]	viscosity, m1 = 1 [mPa·s]	viscosity, m1 = 1.5 [mPa·s]	viscosity, m1 = 2.177 [mPa·s]
298.15 K	1014.4 ± 0.17	1029.41 ± 0.21	1041.88 ± 0.24	1054.22 ± 0.27	1.212 ± 0.01	1.607 ± 0.013	2.102 ± 0.017	3.187 ± 0.026
308.15 K	1010.74 ± 0.17	1024.96 ± 0.2	1036.7 ± 0.23	1048.72 ± 0.26	0.956 ± 0.008	1.24 ± 0.011	1.601 ± 0.013	2.402 ± 0.02
